Consider 7 compounds from paper PMC6969166, “The molecular basis of pyrazinamide activity on Mycobacterium tuberculosis PanD” (Nature Communications, 2020).

One may read the Ki as the dissociation constant of the complex between target and ligand, obtained from inhibition or displacement. The low end stands for tighter binding, the high end for weaker binding. As a reminder, the Kd is the constant that tells how readily two partners part at equilibrium. Broadly, the Km is the concentration of substrate that gives half-maximal velocity.

Where “and” joins values, the source holds several entries; their conditions need not be identical. Identical values can stand only once. Entries after “also recorded” stand apart in the source; their conditions may differ. Like-named read-outs stand apart in the source and are kept apart here.

The target of assay [1] is T1, Mtb PanD (Mycobacterium tuberculosis, UniProt P9WIL3).
T1 construct: The active protein consists of a β chain (Met1-Gly24) and an α chain (Pyr25 to ILE115); we observed the processed active enzyme after cleavage between Gly24 and Ser25; inferred from the pET21c(+) vector and HisTrap purification); made in house; host or cells: Escherichia coli BL21(DE3)
T1 sequence (P9WIL3 1-24): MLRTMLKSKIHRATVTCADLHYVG
T1 sequence (P9WIL3 25-139): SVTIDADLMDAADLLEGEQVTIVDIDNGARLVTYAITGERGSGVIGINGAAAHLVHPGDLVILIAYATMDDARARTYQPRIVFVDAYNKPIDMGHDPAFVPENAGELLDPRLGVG
Kind of assay: biochemical. The note with it: for remaining activity at 312.5 µM / remaining activity at 625 µM / remaining activity at 1250 µM / remaining activity at 2500 µM / remaining activity at 5000 µM / remaining activity at 10000 µM / remaining activity at 20000 µM: read-out: Fractional Activity. The format is biochemical.

For assay [2], the target named is T1, Mtb PanD. The assay is described as follows: Isothermal titration calorimetry, wild type. The format is binding. The note with it: for ΔH / ΔS: mean. On the procedure: ITC experiments were performed using a MicroCal iTC200 (GE). Both protein and ligands were in a buffer of 100 mM Tris, pH 7.5. The protein concentration in the cell was 0.5 mM, and the ligand concentration was 20 mM. The titration was performed at 20 °C. The data were analyzed with the Origin 7.0 software and fitted with a single-site binding model.

Another assay deals with Mtb cultures. The following applies: cited from earlier work.
For a further assay, the system named is PanD. Set-up: method as in PMID 23029336. The note with it: cited from earlier work.

Regarding `O=C(O)c1cnc(Cl)cn1` [5-Cl-POA], the “inhibition of Mtb PanD” value at Mtb PanD [1] is reported as “no inhibition”. Also, the remaining activity at 312.5 µM on Mtb PanD [1] (compound conc 0.3125 mM) came to 92.8%. Besides, the remaining activity at 625 µM at Mtb PanD [1] (compound conc 0.625 mM) was 89.8%. Further, the remaining activity at 1250 µM at Mtb PanD [1] (compound conc 1.25 mM) is 80.2%. In addition, the remaining activity at 2500 µM at Mtb PanD [1] (compound conc 2.5 mM) was determined as 67.7%. The remaining activity at 5000 µM at Mtb PanD [1] (compound conc 5 mM) worked out at 52.9%. Further, the remaining activity at 10000 µM on Mtb PanD [1] (compound conc 10 mM) is 51.6%. Moreover, the remaining activity at 20000 µM at Mtb PanD [1] (compound conc 20 mM) was 44.3%.

Consider `O=C(O)c1cncc(Cl)n1` [6-Cl-POA, 6-chloropyrazinoic acid], for which, on Mtb PanD [1], the affinity, expressed as Ki, was 1000 µM; the “inhibition of Mtb PanD” value is listed as “inhibitor of PanD”; the mode of inhibition result is “competitive”. At Mtb PanD [1] (compound conc 0.3125 mM), the remaining activity at 312.5 µM was 81.8%. Moreover, the remaining activity at 625 µM at Mtb PanD [1] (compound conc 0.625 mM) came out at 69.3%. For the same compound, the remaining activity at 1250 µM on Mtb PanD [1] (compound conc 1.25 mM) came to 51.7%. At Mtb PanD [1] (compound conc 2.5 mM), the remaining activity at 2500 µM came to 35%. Moreover, the remaining activity at 5000 µM at Mtb PanD [1] (compound conc 5 mM) was 22.9%. Further, the remaining activity at 10000 µM at Mtb PanD [1] (compound conc 10 mM) stood at 19.8%. For the same compound, the remaining activity at 20000 µM on Mtb PanD [1] (compound conc 20 mM) came to 8.91%. Besides, the Kd at Mtb PanD [2] (ITC, 20 °C, 100 mM Tris pH 7.5, single-site model, mean of separate experiments) is 1090 µM. Besides, at Mtb PanD [2] (ITC, 20 °C, 100 mM Tris pH 7.5), the ΔH is reported as −3300 (100) cal mol^−1 and the ΔS was 2.2 (0.5) cal mol^−1 deg^−1. On Mtb PanD [2] (ITC, wt, single experiments), the Kd was 1090 µM and 1140 µM and 1050 µM; the “ΔS (cal/mol /deg)” value is 2.27 cal/mol /deg and 1.7 cal/mol /deg and 2.71 cal/mol /deg.

Regarding `O=C(O)c1cccnc1` [NA, nicotinic acid], on Mtb PanD [1], the “inhibition of Mtb PanD” value is “lack of inhibitory activity; also recorded: None of these compounds inhibited”, the remaining activity at 312.5 µM is 101%, the remaining activity at 625 µM was 98.1% and the remaining activity at 1250 µM amounted to 96.6%. At Mtb PanD [1], the remaining activity at 2500 µM was 90.2%, the remaining activity at 5000 µM came out at 87.2%, the remaining activity at 10000 µM is 82.2% and the remaining activity at 20000 µM is 61.4%. Further, the “binding in ITC” value at Mtb PanD [2] (100 mM Tris pH 7.5) is recorded as “no binding”.

Take `O=C(O)c1cnccn1` [POA, pyrazinoic acid]: the mode of inhibition result at Mtb PanD [1] is listed as “competitive with aspartate”. For the same compound, the remaining activity at 312.5 µM at Mtb PanD [1] (compound conc 0.3125 mM) was determined as 81.2%. The remaining activity at 625 µM on Mtb PanD [1] (compound conc 0.625 mM) is 66.4%. The remaining activity at 1250 µM at Mtb PanD [1] (compound conc 1.25 mM) is 52.9%. Moreover, the remaining activity at 2500 µM at Mtb PanD [1] (compound conc 2.5 mM) amounted to 34.8%. Besides, at Mtb PanD [1] (compound conc 5 mM), the remaining activity at 5000 µM stood at 21.6%. Further, the remaining activity at 10000 µM on Mtb PanD [1] (compound conc 10 mM) was determined as 13.4%. The remaining activity at 20000 µM at Mtb PanD [1] (compound conc 20 mM) was found to be 7.44%. Further, at Mtb PanD [2] (ITC, 20 °C, 100 mM Tris pH 7.5), the ΔH is -4200 (200) cal mol^−1 and the ΔS was 0.1 (0.7) cal mol^−1 deg^−1.

`NC(=O)c1cnccn1` [PZA, pyrazinamide]: on Mtb PanD [1], the “inhibition of Mtb PanD” value is on record as “lack of inhibitory activity; also recorded: None of these compounds inhibited”. In addition, the remaining activity at 312.5 µM at Mtb PanD [1] (compound conc 0.3125 mM) is 104%. Also, on Mtb PanD [1] (compound conc 0.625 mM), the remaining activity at 625 µM was found to be 105%. At Mtb PanD [1] (compound conc 1.25 mM), the remaining activity at 1250 µM is 101%. For the same compound, the remaining activity at 2500 µM on Mtb PanD [1] (compound conc 2.5 mM) stood at 104%. On Mtb PanD [1] (compound conc 5 mM), the remaining activity at 5000 µM is 101%. The remaining activity at 10000 µM on Mtb PanD [1] (compound conc 10 mM) was 98.7%. Also, the remaining activity at 20000 µM on Mtb PanD [1] (compound conc 20 mM) was determined as 91.5%. The minimal inhibitory concentration in the assay with Mtb cultures (mildly acidic (<pH6), ref 2 (peer review file list)) was 0.4-1.6 mM and 50 – 200 µg/ml. The minimum inhibitory concentrations in the assay on Mtb cultures (mildly acidic pH) was 400 to 1600 µM. Further, the “activity against Mtb cultures” value with Mtb cultures (normal media) is “not active”.

Regarding `N[C@@H](CC(=O)O)C(=O)O` [aspartate, L-aspartate], the Km on Mtb PanD [1] stood at 1080 µM.

For `O=C(O)C(O)C(O)C(=O)O` (stereo not shown) [tartrate], the “inhibitor of the enzyme” value with PanD is given as “known inhibitor”.
